Test results from patent publication US8895504B2, “Amylin derivatives” (priority 2008, dated 2014).
*1 amine or outer side, *2 acyl side, *3 side chain or, on linkers, in order; H or OH if unused. Where a SMILES comes first, the peptide text is derived from it. Bridges are numbered along the chain shown (N, C = ends). The star is where a group is joined. C20 diacid = O=C(O)CCCCCCCCCCCCCCCCCCC(=O)*; C18 diacid = O=C(O)CCCCCCCCCCCCCCCCC(=O)*; γGlu = O=C(O)[C@H](CCC(=O)[*:2])N[*:1]

Legend:
[1] = Assay (VI) PK - determination of T½ in rat; format: in vivo; settings: sc, terminal plasma half-life, subcutaneous, approx 20 nmol/kg, male Sprague Dawley rats
Method: Assay (VI) PK—Determination OF T½ in Rat
T½ is the terminal half-life=ln 2/λz of a compound in plasma. λz is the first order rate constant associated with the terminal (log-linear) portion of the plasma concentration-time curve and is estimated by linear regression of time vs. log concentration.
T½ values of the amylin analogues of the invention is determined by pharmacokinetic studies in Sprague Dawley male rats, from Taconic Europe and the principles of laboratory animal care are followed.
An acclimatization period of approximately 7 days was allowed before the animals entered the study. At start of the acclimatization period the rats were in the weight range of 300-400 g. The rats had permanent catheters inserted in a. carotis which were used for blood sampling.
The studies were conducted in an animal room which was illuminated to give a cycle of approx 12 hours light and 12 hours darkness. The animals were housed individually due to the catheters and had food and water ad lib. The animals were weighed on the days of dosing.
In the present studies the test substances were administered subcutaneously in approx 20 nmol/kg dose. The animals received a single subcutaneous injection to the neck using a 25 G needle with syringe. Each test substance was given to typically three but in some cases two or four animals.
A full plasma concentration-time profile, employing 8-10 sampling points, was obtained from each animal. In example blood samples were collected according to the following schedule:
After subcutaneous administration:
Predose (0), 0.5, 1, 1.5, 2, 4, 6, 12, 24, 48 and 72 hours after injection. At each sampling time, 0.08 to 0.10 ml of blood was drawn from each animal. The blood samples were taken via the catheter.
The blood samples were collected into EDTA test tubes. Blood samples were kept on ice for max 20 min. before centrifugation. Plasma was separated using centrifugation (i.e. at 4° C., 10 min., 1500 G) and was immediately transferred to Micronic tubes or PCR plates. Approximately 40 μl plasma was transferred and was stored at −20° C. until assayed. The plasma samples were assayed for the content of amylin using an ELISA assay.
The plasma concentration-time profiles were analysed by a non-compartmental pharmacokinetic analysis (NCA) using WinNonlin Professional 5.0 (Pharsight Inc., Mountain View, Calif., USA). NCA was performed using the individual plasma concentration-time profiles from each animal. T½ is the terminal half-life=ln 2/λz and was determined from λz, the first order rate constant associated with the terminal (log-linear) portion of the curve, estimated by linear regression of time vs. log concentration.
ELISA Plasma Assay for Amylin Quantification
The human amylin ELISA is a monoclonal antibody-based sandwich immunoassay for determining amylin levels in human plasma. The capture antibody recognizes human amylin, amylin acid (deamidated amylin), a 1-20 fragment of amylin, but not reduced amylin. The detection antibody binds to reduced or unreduced human amylin but not amylin acid and is complexed with streptavidin-alkaline phosphatase. The substrate, 4-methylumbelliferyl phosphate, is applied to the completed sandwich and the fluorescent signal, monitored at 355 nm/460 nm, is proportional to the amount of amylin present in the sample.

[2] = Assay (V) PK - determination of T½ in mini-pig; format: in vivo; settings: minipig, sc; terminal plasma half-life, subcutaneous, approx 2 nmol/kg, male Göttingen mini-pigs
Procedure, shortened: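 Male Göttingen mini-pigs (5–12 months, 7–35 kg) got a single s.c. neck injection of approx 2 nmol/kg; plasma sampled via central venous catheter predose to 240 h (some to 288 h). Amylin measured by sandwich ELISA; T½ = ln 2/λz from non-compartmental analysis of individual profiles.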

[3] = target: T1, Amylin 3(a) receptor (human calcitonin receptor (CTa) and RAMP-3) (Homo sapiens, UniProt O60896+P30988); assay: Luciferase assay (III), BHK Amylin 3(a)//CRE-luc cells; format: cell-based; settings: BHK cells with Amylin 3(a) receptor and CRE luciferase reporter, 4 hours incubation; read-out: Potency Luciferase
T1 construct: expressed in transfected cells; host or cells: BHK570 cells, stably transfected with a CRE-luciferase reporter
T1 sequence (O60896 24-148): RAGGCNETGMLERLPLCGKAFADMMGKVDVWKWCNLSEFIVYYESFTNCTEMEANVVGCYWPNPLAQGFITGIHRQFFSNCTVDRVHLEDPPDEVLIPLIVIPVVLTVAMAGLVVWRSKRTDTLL
T1 sequence (P30988 25-474): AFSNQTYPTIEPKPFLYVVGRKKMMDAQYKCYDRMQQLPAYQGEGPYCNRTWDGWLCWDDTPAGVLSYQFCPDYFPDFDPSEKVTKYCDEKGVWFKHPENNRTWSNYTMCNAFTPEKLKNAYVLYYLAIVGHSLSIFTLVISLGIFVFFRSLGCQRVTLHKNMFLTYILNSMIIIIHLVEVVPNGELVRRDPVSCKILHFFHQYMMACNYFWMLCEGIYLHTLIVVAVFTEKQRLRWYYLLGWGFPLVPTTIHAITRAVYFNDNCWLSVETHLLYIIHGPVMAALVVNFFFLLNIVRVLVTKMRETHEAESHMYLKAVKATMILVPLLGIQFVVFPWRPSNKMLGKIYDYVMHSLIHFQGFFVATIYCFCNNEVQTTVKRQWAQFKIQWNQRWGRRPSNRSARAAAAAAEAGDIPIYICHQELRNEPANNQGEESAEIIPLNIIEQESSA
Procedure, shortened: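 Read-out is CRE-driven luciferase luminescence, taken 30 min after LucLite addition at room temperature. Compounds were incubated 4 h at 37° C in assay medium (10% FBS, 10 mM Hepes, pH 7,4). The cell line is BHK570 co-transfected with human calcitonin receptor CTa and RAMP-3, seeded overnight before use.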

Row | SMILES | half-life [1] [h] | half-life [2] [h] | EC50 [3] [nM]
1 | CC[C@H](C)[C@H](NC(=O)[C@@H]1CCCN1C(=O)CNC(=O)[C@H](Cc1ccccc1)NC(=O)[C@H](CC(N)=O)NC(=O)[C@H](CC(N)=O)NC(=O)[C@H](CO)NC(=O)[C@H](CO)NC(=O)[C@H](Cc1c[nH]cn1)NC(=O)[C@H](Cc1c[nH]cn1)NC(=O)[C@H](CC(C)C)NC(=O)[C@H](Cc1ccccc1)NC(=O)[C@H](CC(N)=O)NC(=O)[C@H](C)NC(=O)[C@H](CC(C)C)NC(=O)[C@H](CCCNC(=N)N)NC(=O)[C@H](CCC(N)=O)NC(=O)[C@@H](NC(=O)[C@H](C)NC(=O)[C@@H]1CSSC[C@H](NC(=O)CC[C@H](NC(=O)CCCCCCCCCCCCCCCCC(=O)O)C(=O)O)C(=O)N[C@@H](CC(N)=O)C(=O)N[C@@H]([C@@H](C)O)C(=O)N[C@@H](C)C(=O)N[C@@H]([C@@H](C)O)C(=O)N1)[C@@H](C)O)C(=O)N[C@@H](CC(C)C)C(=O)N1CCC[C@H]1C(=O)N1CCC[C@H]1C(=O)N[C@H](C(=O)N[C@@H](CC(N)=O)C(=O)N[C@H](C(=O)NCC(=O)N[C@@H](CO)C(=O)N[C@@H](CC(N)=O)C(=O)N[C@H](C(=O)N[C@@H](Cc1ccc(O)cc1)C(N)=O)[C@@H](C)O)C(C)C)[C@@H](C)O [Example 10, N-alpha-[(S)-4-Carboxy-4-(17-carboxyheptadecanoylamino)butyryl]-[His17]-pramlintide (2-37)] ({C18 diacid-γGlu}-CNTATCATQRLANFLHHSSNNFGPILPPTNVGSNTY-NH2; disulfide 1-6) | 11 | 66 | 0.08
2 | CC[C@H](C)[C@H](NC(=O)[C@@H]1CCCN1C(=O)CNC(=O)[C@H](Cc1ccccc1)NC(=O)[C@H](CC(N)=O)NC(=O)[C@H](CC(N)=O)NC(=O)[C@H](CO)NC(=O)[C@H](CO)NC(=O)[C@H](Cc1c[nH]cn1)NC(=O)[C@H](CCCNC(=N)N)NC(=O)[C@H](CC(C)C)NC(=O)[C@H](Cc1ccccc1)NC(=O)[C@H](CC(N)=O)NC(=O)[C@H](C)NC(=O)[C@H](CC(C)C)NC(=O)[C@H](CCCNC(=N)N)NC(=O)[C@H](CCC(N)=O)NC(=O)[C@@H](NC(=O)[C@H](C)NC(=O)[C@@H]1CSSC[C@H](NC(=O)[C@H](CCCCN)NC(=O)[C@H](CCCNC(=N)N)NC(=O)CC[C@H](NC(=O)CCCCCCCCCCCCCCCCCCC(=O)O)C(=O)O)C(=O)N[C@@H](CC(N)=O)C(=O)N[C@@H]([C@@H](C)O)C(=O)N[C@@H](C)C(=O)N[C@@H]([C@@H](C)O)C(=O)N1)[C@@H](C)O)C(=O)N[C@@H](CC(C)C)C(=O)N1CCC[C@H]1C(=O)N1CCC[C@H]1C(=O)N[C@H](C(=O)N[C@@H](CC(N)=O)C(=O)N[C@H](C(=O)NCC(=O)N[C@@H](CO)C(=O)N[C@@H](CC(N)=O)C(=O)N[C@H](C(=O)N[C@@H](Cc1ccc(O)cc1)C(N)=O)[C@@H](C)O)C(C)C)[C@@H](C)O [Example 22, N-alpha-[(S)-4-Carboxy-4-(19-carboxynonadecanoylamino)butyryl]-Arg-[Arg17]-pramlintide] ({C20 diacid-γGlu}-RKCNTATCATQRLANFLRHSSNNFGPILPPTNVGSNTY-NH2; disulfide 3-8) | 13 | 34 | 0.1
